Test results reported in PubChem BioAssay AID1918931 (Molecular Pharmacology Branch, DTP, NCI, 2023).

System: 138582-337-R-J1-PDC complex spheroid viability
Assay: Anticancer human tumor 138582-337-R-J1-PDC patient-derived Merkel cell tumor cell line growth inhibition
Settings: for IC50: curve of first compound; for viability, T/C: stronger effect = lower value
Procedure, shortened: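 Multicellular complex spheroids of tumor cells with human endothelial cells (HUVEC) and mesenchymal stem cells; the LSD1 inhibitor iadademstat was combined with standard-of-care or investigational agents. Top concentration at or near clinical Cmax, half-log dilutions; final DMSO ≤0.25%.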

[1] = second compound 0.1 µM, first compound 0.000949 µM
[2] = second compound 0.1 µM, first compound 0.003 µM
[3] = second compound 0.1 µM, first compound 0.00949 µM
[4] = second compound 0.1 µM, first compound 0.03 µM
[5] = second compound 0.1 µM, first compound 0.0949 µM
[6] = second compound 0.1 µM, first compound 0.3 µM
[7] = second compound 0.316 µM, first compound 0.000949 µM
[8] = second compound 0.316 µM, first compound 0.003 µM
[9] = second compound 0.316 µM, first compound 0.00949 µM
[10] = second compound 0.316 µM, first compound 0.03 µM
[11] = second compound 0.316 µM, first compound 0.0949 µM
[12] = second compound 0.316 µM, first compound 0.3 µM
[13] = second compound 1 µM, first compound 0.000949 µM
[14] = second compound 1 µM, first compound 0.003 µM
[15] = second compound 1 µM, first compound 0.00949 µM
[16] = second compound 1 µM, first compound 0.03 µM
[17] = second compound 1 µM, first compound 0.0949 µM
[18] = second compound 1 µM, first compound 0.3 µM
[19] = second compound 3.16 µM, first compound 0.000949 µM
[20] = second compound 3.16 µM, first compound 0.003 µM
[21] = second compound 3.16 µM, first compound 0.00949 µM
[22] = second compound 3.16 µM, first compound 0.03 µM
[23] = second compound 3.16 µM, first compound 0.0949 µM
[24] = second compound 3.16 µM, first compound 0.3 µM
[25] = second compound 10 µM, first compound 0.000949 µM
[26] = second compound 10 µM, first compound 0.003 µM
[27] = second compound 10 µM, first compound 0.00949 µM
[28] = second compound 10 µM, first compound 0.03 µM
[29] = second compound 10 µM, first compound 0.0949 µM
[30] = second compound 10 µM, first compound 0.3 µM
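Also: spheroids exposed to agents for 7 days.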
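For viability, T/C in this document: 100% = DMSO vehicle control viability.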

## Nc1ncn(C2CC(O)C(CO)S2)c(=O)n1 (stereo not given) + NC1CC1c1ccc(-c2cccc(O)c2)cc1
Second compound 0.1 µM
  IC50: > 0.3 µM
Second compound 0.316 µM
  IC50: > 0.3 µM
Second compound 1 µM
  IC50: > 0.3 µM
Second compound 3.16 µM
  IC50: > 0.3 µM
Second compound 10 µM
  IC50: > 0.3 µM
[1]
  viability, T/C: 79.6%
[2]
  viability, T/C: 83.8%
[3]
  viability, T/C: 69.2%
[4]
  viability, T/C: 73%
[5]
  viability, T/C: 77.1%
[6]
  viability, T/C: 69.3%
[7]
  viability, T/C: 68.5%
[8]
  viability, T/C: 80.1%
[9]
  viability, T/C: 77.9%
[10]
  viability, T/C: 76.6%
[11]
  viability, T/C: 79.1%
[12]
  viability, T/C: 78.3%
[13]
  viability, T/C: 71.8%
[14]
  viability, T/C: 70.8%
[15]
  viability, T/C: 70.8%
[16]
  viability, T/C: 68%
[17]
  viability, T/C: 76.6%
[18]
  viability, T/C: 87.5%
[19]
  viability, T/C: 84.5%
[20]
  viability, T/C: 78.9%
[21]
  viability, T/C: 84.9%
[22]
  viability, T/C: 71.8%
[23]
  viability, T/C: 77.8%
[24]
  viability, T/C: 68.9%
[25]
  viability, T/C: 74.3%
[26]
  viability, T/C: 82%
[27]
  viability, T/C: 88.5%
[28]
  viability, T/C: 89.7%
[29]
  viability, T/C: 93.4%
[30]
  viability, T/C: 89.9%

## CC[C@@]1(O)C(=O)OCc2c1cc1n(c2=O)Cc2cc3c(CN(C)C)c(O)ccc3nc2-1 + NC1CC1c1ccc(-c2cccc(O)c2)cc1
Second compound 0.1 µM
  IC50: > 0.1 µM
Second compound 0.316 µM
  IC50: > 0.1 µM
Second compound 1 µM
  IC50: > 0.1 µM
Second compound 3.16 µM
  IC50: > 0.1 µM
Second compound 10 µM
  IC50: > 0.1 µM
Second compound 0.1 µM, first compound 0.000316 µM
  viability, T/C: 70.6%
Second compound 0.1 µM, first compound 0.001 µM
  viability, T/C: 71.1%
Second compound 0.1 µM, first compound 0.00316 µM
  viability, T/C: 63.5%
Second compound 0.1 µM, first compound 0.01 µM
  viability, T/C: 80%
Second compound 0.1 µM, first compound 0.0316 µM
  viability, T/C: 68.5%
Second compound 0.1 µM, first compound 0.1 µM
  viability, T/C: 76.8%
Second compound 0.316 µM, first compound 0.000316 µM
  viability, T/C: 80.2%
Second compound 0.316 µM, first compound 0.001 µM
  viability, T/C: 70.7%
Second compound 0.316 µM, first compound 0.00316 µM
  viability, T/C: 73.2%
Second compound 0.316 µM, first compound 0.01 µM
  viability, T/C: 68.5%
Second compound 0.316 µM, first compound 0.0316 µM
  viability, T/C: 66.6%
Second compound 0.316 µM, first compound 0.1 µM
  viability, T/C: 75.9%
Second compound 1 µM, first compound 0.000316 µM
  viability, T/C: 70.8%
Second compound 1 µM, first compound 0.001 µM
  viability, T/C: 70.7%
Second compound 1 µM, first compound 0.00316 µM
  viability, T/C: 80.2%
Second compound 1 µM, first compound 0.01 µM
  viability, T/C: 71.1%
Second compound 1 µM, first compound 0.0316 µM
  viability, T/C: 61.3%
Second compound 1 µM, first compound 0.1 µM
  viability, T/C: 74.3%
Second compound 3.16 µM, first compound 0.000316 µM
  viability, T/C: 75.6%
Second compound 3.16 µM, first compound 0.001 µM
  viability, T/C: 74.8%
Second compound 3.16 µM, first compound 0.00316 µM
  viability, T/C: 85.6%
Second compound 3.16 µM, first compound 0.01 µM
  viability, T/C: 81.8%
Second compound 3.16 µM, first compound 0.0316 µM
  viability, T/C: 66.4%
Second compound 3.16 µM, first compound 0.1 µM
  viability, T/C: 66.4%
Second compound 10 µM, first compound 0.000316 µM
  viability, T/C: 82.8%
Second compound 10 µM, first compound 0.001 µM
  viability, T/C: 81.2%
Second compound 10 µM, first compound 0.00316 µM
  viability, T/C: 100%
Second compound 10 µM, first compound 0.01 µM
  viability, T/C: 90.3%
Second compound 10 µM, first compound 0.0316 µM
  viability, T/C: 77.3%
Second compound 10 µM, first compound 0.1 µM
  viability, T/C: 67.8%

## Nc1ccn(C2OC(CO)C(O)C2(F)F)c(=O)n1 (stereo not given) + NC1CCC(NC2CC2c2ccccc2)CC1
Second compound 0.1 µM
  IC50: > 0.3 µM
Second compound 0.316 µM
  IC50: > 0.3 µM
Second compound 1 µM
  IC50: > 0.3 µM
Second compound 3.16 µM
  IC50: > 0.3 µM
Second compound 10 µM
  IC50: > 0.3 µM
[1]
  viability, T/C: 96%
[2]
  viability, T/C: 94.2%
[3]
  viability, T/C: 94.2%
[4]
  viability, T/C: 95.3%
[5]
  viability, T/C: 94.7%
[6]
  viability, T/C: 105%
[7]
  viability, T/C: 89.9%
[8]
  viability, T/C: 92%
[9]
  viability, T/C: 93.6%
[10]
  viability, T/C: 85.8%
[11]
  viability, T/C: 84.2%
[12]
  viability, T/C: 106%
[13]
  viability, T/C: 98.3%
[14]
  viability, T/C: 93.7%
[15]
  viability, T/C: 95.4%
[16]
  viability, T/C: 80.9%
[17]
  viability, T/C: 108%
[18]
  viability, T/C: 85.6%
[19]
  viability, T/C: 79.8%
[20]
  viability, T/C: 81%
[21]
  viability, T/C: 91.8%
[22]
  viability, T/C: 87.9%
[23]
  viability, T/C: 85.8%
[24]
  viability, T/C: 88.7%
[25]
  viability, T/C: 88.7%
[26]
  viability, T/C: 71.1%
[27]
  viability, T/C: 87%
[28]
  viability, T/C: 79.4%
[29]
  viability, T/C: 76.4%
[30]
  viability, T/C: 92.6%

## CCN(c1cc(-c2ccc(CN3CCOCC3)cc2)cc(C(=O)NCc2c(C)cc(C)[nH]c2=O)c1C)C1CCOCC1 + NC1CC1c1ccc(-c2cccc(O)c2)cc1
Second compound 0.1 µM
  IC50: > 3 µM
Second compound 0.316 µM
  IC50: > 3 µM
Second compound 1 µM
  IC50: > 3 µM
Second compound 3.16 µM
  IC50: > 3 µM
Second compound 10 µM
  IC50: > 3 µM
[3]
  viability, T/C: 76.8%
[4]
  viability, T/C: 69.5%
[5]
  viability, T/C: 53.6%
[6]
  viability, T/C: 59.3%
Second compound 0.1 µM, first compound 0.949 µM
  viability, T/C: 66.9%
Second compound 0.1 µM, first compound 3 µM
  viability, T/C: 64.6%
[9]
  viability, T/C: 80.8%
[10]
  viability, T/C: 81%
[11]
  viability, T/C: 77.9%
[12]
  viability, T/C: 66.6%
Second compound 0.316 µM, first compound 0.949 µM
  viability, T/C: 59%
Second compound 0.316 µM, first compound 3 µM
  viability, T/C: 67.1%
[15]
  viability, T/C: 78.3%
[16]
  viability, T/C: 72.7%
[17]
  viability, T/C: 77.1%
[18]
  viability, T/C: 66.8%
Second compound 1 µM, first compound 0.949 µM
  viability, T/C: 64.7%
Second compound 1 µM, first compound 3 µM
  viability, T/C: 60.5%
[21]
  viability, T/C: 75.8%
[22]
  viability, T/C: 84.9%
[23]
  viability, T/C: 82%
[24]
  viability, T/C: 75.2%
Second compound 3.16 µM, first compound 0.949 µM
  viability, T/C: 59.4%
Second compound 3.16 µM, first compound 3 µM
  viability, T/C: 66.9%
[27]
  viability, T/C: 63.7%
[28]
  viability, T/C: 91.8%
[29]
  viability, T/C: 74%
[30]
  viability, T/C: 80.3%
Second compound 10 µM, first compound 0.949 µM
  viability, T/C: 61.4%
Second compound 10 µM, first compound 3 µM
  viability, T/C: 72.4%
